The text below walks through data of US8680096B2, “Diphenyl-pyrazolopyridine derivatives, preparation thereof, and use thereof as nuclear receptor not modulators” (Sanofi-Aventis, priority 2009, dated 2014).

The structures appear in SMILES notation.

Broadly, the EC50 is the concentration at which the effect is half-maximal. Lower therefore signals greater potency. What is called melting point is the temperature of the solid-liquid transition.

The first series deals with T1, murine Nurr1 receptor (Mus musculus, UniProt Q06219).
T1 construct: a cell line (N2A) endogenously expressing the murine Nurr1 receptor; host or cells: Neuro-2A (N2A) mouse neuroblastoma cells stably transfected with 8NBRE-luciferase
T1 sequence (Q06219 whole entry): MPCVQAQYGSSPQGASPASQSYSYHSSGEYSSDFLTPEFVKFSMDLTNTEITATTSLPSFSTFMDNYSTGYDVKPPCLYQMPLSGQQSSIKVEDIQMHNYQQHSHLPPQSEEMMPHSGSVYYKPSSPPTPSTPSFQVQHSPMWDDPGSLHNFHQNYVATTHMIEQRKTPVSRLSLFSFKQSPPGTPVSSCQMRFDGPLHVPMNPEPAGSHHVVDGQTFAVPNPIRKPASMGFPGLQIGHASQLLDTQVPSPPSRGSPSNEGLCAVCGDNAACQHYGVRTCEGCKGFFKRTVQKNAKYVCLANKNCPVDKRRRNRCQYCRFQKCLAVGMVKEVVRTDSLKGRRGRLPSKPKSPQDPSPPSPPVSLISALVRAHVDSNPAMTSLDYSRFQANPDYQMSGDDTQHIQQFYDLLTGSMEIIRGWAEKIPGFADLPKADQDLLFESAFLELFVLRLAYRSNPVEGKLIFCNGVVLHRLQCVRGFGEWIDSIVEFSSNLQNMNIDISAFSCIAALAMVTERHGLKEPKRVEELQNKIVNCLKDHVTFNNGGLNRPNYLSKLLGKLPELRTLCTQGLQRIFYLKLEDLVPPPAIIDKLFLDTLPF
Nature of the series: In vitro activity on N2A cells (8NBRE-luciferase reporter). It counts as cell-based. The following applies: N2A cells endogenously expressing Nurr1, stably transfected with 8NBRE-luciferase; 24 hours incubation. Here is the method: Evaluation of the In Vitro Activity on N2A Cells
The activity of the compounds according to the invention was evaluated on a cell line (N2A) endogenously expressing the murine Nurr1 receptor and stably transfected with the NOT binding response element (NBRE) coupled to the luciferase reporter gene. The tests were performed according to the procedure described hereinbelow.
The cell line Neuro-2A is obtained from a standard commercial source (ATCC). The clone Neuro-2A was obtained from a spontaneous tumour originating from a strain of albino mice A by R. J Klebe et al. This line Neuro-2A is then stably transfected with 8NBRE-luciferase. The N2A-8NBRE cells are cultured to the point of confluence in 75 cm^2 culture flasks containing DMEM supplemented with 10% foetal calf serum, 4.5 g/L of glucose and 0.4 mg/ml of geneticin. After culturing for one week, the cells are recovered with 0.25% trypsin for 30 seconds and then resuspended in DMEM without phenol red, containing 4.5 g/L of glucose and 10% Hyclone defatted serum, and placed in white, transparent-base 96-well plates. The cells are deposited at a rate of 60 000 per well in 75 4, for 24 hours before adding the products. The products are applied in 25 4 and incubated for a further 24 hours. On the day of measurement, an equivalent volume (100 4) of Steadylite is added to each well, and the wells are then left for 30 minutes to obtain complete lysis of the cells and maximum production of the signal. The plates are then measured in a microplate luminescence counter, after having been sealed with an adhesive film. The products are prepared in the form of a 10^−2 M stock solution, and then diluted in 100% of DMSO. Each concentration of product is prediluted in culture medium before incubation with the cells thus containing 0.625% final of DMSO.
In general terms: In a reporter assay the amount or activity of a reporter protein is the signal.
`CNC(=O)c1ccc(-c2ccn3nc(-c4ccc(F)cc4)cc3c2)cc1F` [Compound 14, 2-Fluoro-4-[2-(4-fluorophenyl)pyrazolo[1,5-c]pyridin-5-yl]-N-methylbenzamide] showed an EC50 of 125 nM. This counts as sub-micromolar.
In the case of `O=C(c1cccc(-c2ccn3nc(-c4ccc(F)cc4)cc3c2)c1)N1CCCC1` [Compound 16, {3-[2-(4-Fluorophenyl)pyrazolo[1,5-c]pyridin-5-yl]phenyl}pyrrolidin-1-ylmethanone], it took 326 nM to reach a half-maximal effect (EC50).
For the compound `CNC(=O)c1cccc(-c2ccn3nc(-c4cc(F)cc(F)c4)cc3c2)c1` [Compound 26], the response was half-maximal at 1.3 nM (EC50).
As for `CNC(=O)c1cccc(-c2ccn3nc(-c4ccc(Cl)cc4)cc3c2)c1` [Compound 4, 3-[2-(4-Chlorophenyl)pyrazolo[1,5-a]pyridin-5-yl]-N-methylbenzamide], the EC50 was 2 nM. This EC50 lies about 1.5-fold higher than the previous one.
Take `CNC(=O)c1cccc(-c2ccn3nc(-c4ccc(F)cc4)cc3c2)c1C` [Compound 10, 3-[2-(4-Fluorophenyl)pyrazolo[1,5-a]pyridin-5-yl]-2,N-dimethylbenzamide]: a half-maximal response (EC50) required 6.6 nM.
Still for that read-out and setting: the result for `NC(=O)c1cccc(-c2ccn3nc(-c4ccc(Cl)cc4)cc3c2)c1` [Compound 2, 3-[2-(4-Chlorophenyl)pyrazolo[1,5-a]pyridin-5-yl]benzamide] reads 45 nM.

System in another series: not given
Experiment: not given
Conditions: not given
With `CNC(=O)c1cccc(-c2ccn3nc(-c4cccc(F)c4F)cc3c2)c1` [Compound 32, 3-[2-(2,3-Difluorophenyl)pyrazolo[1,5-a]pyridin-5-yl]-N-methylbenzamide], the melting point was in the range of 214 to 216 °C.
In the case of `CNC(=O)c1ccc(-c2ccn3nc(-c4ccc(F)cc4)cc3c2)cc1F` [Compound 14, 2-Fluoro-4-[2-(4-fluorophenyl)pyrazolo[1,5-c]pyridin-5-yl]-N-methylbenzamide], the melting point lay within 227 to 229 °C.
As to `CNC(=O)c1cccc(-c2ccn3nc(-c4ccccc4C)cc3c2)c1` [Compound 33, N-Methyl-3-(2-o-tolylpyrazolo[1,5-a]pyridin-5-yl)benzamide], the melting point fell in the range of 129 to 131 °C.
In the case of `CNC(=O)c1ccc(Cl)c(-c2ccn3nc(-c4ccc(F)cc4)cc3c2)c1` [Compound 12, 4-Chloro-3-[2-(4-fluorophenyl)pyrazolo[1,5-a]pyridin-5-yl]-N-methylbenzamide], the melting point fell in the range of 188 to 190 °C.
On to `CNC(=O)c1cccc(-c2ccn3nc(-c4ccc(C(F)(F)F)cc4)cc3c2)c1` [Compound 19, N-Methyl-3-[2-(4-trifluoromethylphenyl)pyrazolo[1,5-a]pyridin-5-yl]benzamide], for which the melting point was 220 to 222 °C.
On the same count and under the same terms, to `CNC(=O)c1cccc(-c2ccn3nc(-c4ccc(C#N)cc4)cc3c2)c1` [Compound 31, 3-[2-(4-Cyanophenyl)pyrazolo[1,5-a]pyridin-5-yl]-N-methylbenzamide] belongs 252 to 254 °C.
On to `CNC(=O)c1cccc(-c2ccn3nc(-c4ccc(F)cc4)cc3c2)c1` [Compound 6, 3-[2-(4-Fluorophenyl)pyrazolo[1,5-a]pyridin-5-yl]-N-methylbenzamide], for which the melting point fell in the range of 214 to 216 °C.
`O=C(c1cccc(-c2ccn3nc(-c4ccc(F)cc4)cc3c2)c1)N1CCCC1` [Compound 16, {3-[2-(4-Fluorophenyl)pyrazolo[1,5-c]pyridin-5-yl]phenyl}pyrrolidin-1-ylmethanone]: the melting point fell in the range of 164 to 166 °C.
For the compound `CNC(=O)c1cc(-c2ccn3nc(-c4ccc(F)cc4)cc3c2)ccc1Cl` [Compound 11, 2-Chloro-5-[2-(4-fluorophenyl)pyrazolo[1,5-a]pyridin-5-yl]-N-methylbenzamide], the melting point lay within 243 to 245 °C.
On the same count and under the same terms, the result for `CNC(=O)c1cccc(-c2ccn3nc(-c4cc(F)cc(F)c4)cc3c2)c1` [Compound 26] reads 230 to 232 °C; that for `CNC(=O)c1cccc(-c2ccn3nc(-c4ccc(F)cc4F)cc3c2)c1` [Compound 23, 3-[2-(2,4-Difluorophenyl)pyrazolo[1,5-a]pyridin-5-yl]-N-methylbenzamide], 210 to 212 °C.
Compound `CNC(=O)c1cccc(-c2ccn3nc(-c4ccc(C)cc4)cc3c2)c1` [Compound 28, N-Methyl-3-(2-p-tolylpyrazolo[1,5-a]pyridin-5-yl)benzamide] yielded a melting point of 204 to 206 °C.
In turn, `CNC(=O)c1cccc(-c2ccn3nc(-c4ccc(OC)cc4)cc3c2)c1` [Compound 29, 3-[2-(4-Methoxyphenyl)pyrazolo[1,5-a]pyridin-5-yl]-N-methylbenzamide] yielded a melting point of 211 to 213 °C.
Take `CN(C)C(=O)c1cccc(-c2ccn3nc(-c4ccc(Cl)cc4)cc3c2)c1` [Compound 3, 3-[2-(4-Chlorophenyl)pyrazolo[1,5-a]pyridin-5-yl]-N,N-dimethyl-benzamide]: the melting point lay within 175 to 177 °C.
For the compound `CNC(=O)c1cccc(-c2ccn3nc(-c4ccc(F)cc4)c(Cl)c3c2)c1` [Compound 34, 3-[3-Chloro-2-(4-fluorophenyl)pyrazolo[1,5-a]pyridin-5-yl]-N-methyl-benzamide], the melting point lay in the range of 221 to 223 °C.
Turning to `CNC(=O)c1ccc(-c2ccn3nc(-c4ccc(F)cc4)cc3c2)cc1` [Compound 20, 4-[2-(4-Fluorophenyl)pyrazolo[1,5-a]pyridin-5-yl]-N-methylbenzamide], the melting point lay in the range of 264 to 266 °C.
In turn, `CNC(=O)c1cccc(-c2ccn3nc(-c4cccc(F)c4)cc3c2)c1` [Compound 27, 3-[2-(3-Fluorophenyl)pyrazolo[1,5-a]pyridin-5-yl]-N-methylbenzamide] had a melting point of 204 to 206 °C.
On the same count and under the same terms, to `CNC(=O)c1cccc(-c2ccn3nc(-c4ccc(Cl)cc4)cc3c2)c1` [Compound 4, 3-[2-(4-Chlorophenyl)pyrazolo[1,5-a]pyridin-5-yl]-N-methylbenzamide] belongs 234 to 236 °C.
Still for that read-out and setting: to `CNC(=O)c1ccc(C)c(-c2ccn3nc(-c4ccc(F)cc4)cc3c2)c1` [Compound 13, 3-[2-(4-Fluorophenyl)pyrazolo[1,5-a]pyridin-5-yl]-4,N-dimethylbenzamide] belongs 185 to 187 °C; to `NC(=O)c1cccc(-c2ccn3nc(-c4ccc(Cl)cc4)cc3c2)c1` [Compound 2, 3-[2-(4-Chlorophenyl)pyrazolo[1,5-a]pyridin-5-yl]benzamide], 283 to 285 °C; to `COC(=O)c1cccc(-c2ccn3nc(-c4ccc(F)cc4)cc3c2)c1` [Compound 5, Methyl 3-[2-(4-fluorophenyl)pyrazolo[1,5-a]pyridin-5-yl]benzoate], 162 to 164 °C.
Consider `O=C(NC1CC1)c1cccc(-c2ccn3nc(-c4ccc(F)cc4)cc3c2)c1` [Compound 15, N-Cyclopropyl-3-[2-(4-fluorophenyl)pyrazolo[1,5-a]pyridin-5-yl]-benzamide], for which the melting point lay within 179 to 181 °C.
Same read-out and setting: the result for `CC(C)NC(=O)c1cccc(-c2ccn3nc(-c4ccc(F)cc4)cc3c2)c1` [Compound 7, 3-[2-(4-Fluorophenyl)pyrazolo[1,5-a]pyridin-5-yl]-N-isopropylbenzamide] reads 210 to 212 °C.
As for `CNC(=O)c1cccc(-c2ccn3nc(-c4ccccc4F)cc3c2)c1` [Compound 18, 3-[2-(2-Fluorophenyl)pyrazolo[1,5-a]pyridin-5-yl]-N-methylbenzamide], the melting point is 195 to 197 °C.
In turn, `COC(=O)c1cccc(-c2ccn3nc(-c4ccc(Cl)cc4)cc3c2)c1` [Compound 1, Methyl 3-[2-(4-chlorophenyl)pyrazolo[1,5-a]pyridin-5-yl]benzoate] had a melting point of 180 to 182 °C.
Regarding `O=C(c1cccc(-c2ccn3nc(-c4ccc(F)cc4)cc3c2)c1)N1CCC(O)C1` (centres unmarked) [Compound 22, {3-[2-(4-Fluorophenyl)pyrazolo[1,5-a]pyridin-5-yl]phenyl}-(3-hydroxy-pyrrolidin-1-yl)methanone], the melting point was 173 to 175 °C.
